In ChEMBL document CHEMBL1201862, “PubChem BioAssay data set” (2004):
Active and inactive are the calls of the source.

What was measured:
Genome polyprotein = Genome polyprotein (dengue virus type 2, UniProt P29990); assay: flavivirus cap methylation enzyme inhibition – biochemical, confirmation dose response, primary screen (AID 588689); type: functional
[1] = target: T1, Endoribonuclease toxin MazF (Escherichia coli K-12, UniProt P0AE70); assay: activation of MazEF endoribonuclease cleavage – biochemical, fluorescence, single-stranded RNA substrate, uHTS hits, dose response (AID 588481); type: functional
T1 sequence (P0AE70 whole entry): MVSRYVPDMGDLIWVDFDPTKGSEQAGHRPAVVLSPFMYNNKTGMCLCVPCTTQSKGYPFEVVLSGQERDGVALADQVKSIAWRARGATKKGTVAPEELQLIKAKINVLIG

[2] = target: T1, Endoribonuclease toxin MazF; assay: substrate-only fluorescence increase artefacts – biochemical, single-stranded RNase substrate, counter-screen for MazEF activator project, dose response (AID 588502); type: functional
[3] = target: DNA dC->dU-editing enzyme APOBEC-3G (Homo sapiens, UniProt Q9HC16); assay: Dose Response confirmation of small molecule APOBEC3G DNA Deaminase Inhibitors via a fluorescence-based single-stranded DNA deaminase assay. [Related pubchem assays (depositor defined):AID493012, AID493028]; type: functional
[4] = blockers of CRF-binding protein–CRF-R2 complex – cell-based, uHTS hits, 384-well, dose response (AID 651639); type: functional, Homo sapiens; details: read-out: IC50_Mean
[5] = target: T2, Corticotropin-releasing factor receptor 2/Corticotropin-releasing factor-binding protein (Homo sapiens, UniProt P24387+Q13324); assay: activators of CRF receptor 2 with binding protein – uHTS hits, confirmation (AID 602473); type: functional; details: read-out: EC50_Mean
T2 sequence (Q13324 whole entry): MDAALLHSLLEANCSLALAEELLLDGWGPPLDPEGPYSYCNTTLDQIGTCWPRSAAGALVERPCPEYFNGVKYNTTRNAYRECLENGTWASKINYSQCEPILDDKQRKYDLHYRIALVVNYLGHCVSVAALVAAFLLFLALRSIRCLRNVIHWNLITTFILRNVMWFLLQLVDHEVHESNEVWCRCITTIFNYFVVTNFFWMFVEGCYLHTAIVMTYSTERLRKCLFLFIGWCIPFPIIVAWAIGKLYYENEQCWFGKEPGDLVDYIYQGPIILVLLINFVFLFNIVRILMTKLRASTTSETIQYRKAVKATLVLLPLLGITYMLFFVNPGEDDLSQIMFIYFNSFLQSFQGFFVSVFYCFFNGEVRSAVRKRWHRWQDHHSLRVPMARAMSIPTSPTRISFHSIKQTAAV
T2 sequence (P24387 whole entry): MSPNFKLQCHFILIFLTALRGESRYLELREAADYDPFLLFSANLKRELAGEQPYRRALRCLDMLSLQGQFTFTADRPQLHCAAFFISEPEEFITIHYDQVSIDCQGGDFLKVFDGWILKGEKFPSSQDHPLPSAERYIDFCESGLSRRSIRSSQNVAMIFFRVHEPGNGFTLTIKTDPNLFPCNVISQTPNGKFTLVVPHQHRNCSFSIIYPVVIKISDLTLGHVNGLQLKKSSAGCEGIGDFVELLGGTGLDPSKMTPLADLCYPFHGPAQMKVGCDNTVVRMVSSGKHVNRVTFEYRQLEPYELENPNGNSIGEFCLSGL

[6] = target: T2, Corticotropin-releasing factor receptor 2/Corticotropin-releasing factor-binding protein; assay: Dose Response confirmation of uHTS hits for small molecule antagonists of the CRF-binding protein and CRF-R2 receptor complex.; type: functional; details: read-out: IC50_Mean
BJ [7] = assay: cells; type: functional, cell-based; details: Homo sapiens
BJ [8] = assay: BJ-TERT fibroblast viability loss – cell-based, RAS-independent, luminescence, dose response (AID 1933); type: functional; details: Homo sapiens
[9] = HEK-293T cell viability reduction – luminescence, B-cell screen hits, cytotoxicity control for BCR NF-kB inhibitor project, dose response (AID 489021); type: functional, cell-based;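 further: HEK-293T cells carrying an NF-kB luciferase reporter; cells exposed to compound for about 14 hours before viability readout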
Cytochrome P450 2C9 = Cytochrome P450 2C9 (Homo sapiens, UniProt P11712)
Cytochrome P450 2C19 = Cytochrome P450 2C19 (Homo sapiens, UniProt P33261); assay: Cytochrome panel assay with activity outcomes. Panel member name: p450-cyp2c19 Compounds with AC50 equal or less than 10 uM are considered active; type: functional; details: read-out: AC50
Chain of Cytochrome P450 2C19 (P33261 whole entry): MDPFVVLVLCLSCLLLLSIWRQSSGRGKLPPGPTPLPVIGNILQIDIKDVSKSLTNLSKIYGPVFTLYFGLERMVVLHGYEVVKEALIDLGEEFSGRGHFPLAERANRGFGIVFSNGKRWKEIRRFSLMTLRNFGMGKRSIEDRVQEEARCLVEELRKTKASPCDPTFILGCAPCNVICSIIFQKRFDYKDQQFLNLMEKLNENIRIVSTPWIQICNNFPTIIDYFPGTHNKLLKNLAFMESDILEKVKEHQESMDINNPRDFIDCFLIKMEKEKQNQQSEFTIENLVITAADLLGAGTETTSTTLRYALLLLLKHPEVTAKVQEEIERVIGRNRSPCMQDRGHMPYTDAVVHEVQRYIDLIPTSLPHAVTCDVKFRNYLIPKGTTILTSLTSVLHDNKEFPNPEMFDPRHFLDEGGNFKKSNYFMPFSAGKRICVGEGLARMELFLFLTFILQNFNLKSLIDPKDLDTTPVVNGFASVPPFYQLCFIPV

Chain of Genome polyprotein (P29990 2492-3391 limits assumed): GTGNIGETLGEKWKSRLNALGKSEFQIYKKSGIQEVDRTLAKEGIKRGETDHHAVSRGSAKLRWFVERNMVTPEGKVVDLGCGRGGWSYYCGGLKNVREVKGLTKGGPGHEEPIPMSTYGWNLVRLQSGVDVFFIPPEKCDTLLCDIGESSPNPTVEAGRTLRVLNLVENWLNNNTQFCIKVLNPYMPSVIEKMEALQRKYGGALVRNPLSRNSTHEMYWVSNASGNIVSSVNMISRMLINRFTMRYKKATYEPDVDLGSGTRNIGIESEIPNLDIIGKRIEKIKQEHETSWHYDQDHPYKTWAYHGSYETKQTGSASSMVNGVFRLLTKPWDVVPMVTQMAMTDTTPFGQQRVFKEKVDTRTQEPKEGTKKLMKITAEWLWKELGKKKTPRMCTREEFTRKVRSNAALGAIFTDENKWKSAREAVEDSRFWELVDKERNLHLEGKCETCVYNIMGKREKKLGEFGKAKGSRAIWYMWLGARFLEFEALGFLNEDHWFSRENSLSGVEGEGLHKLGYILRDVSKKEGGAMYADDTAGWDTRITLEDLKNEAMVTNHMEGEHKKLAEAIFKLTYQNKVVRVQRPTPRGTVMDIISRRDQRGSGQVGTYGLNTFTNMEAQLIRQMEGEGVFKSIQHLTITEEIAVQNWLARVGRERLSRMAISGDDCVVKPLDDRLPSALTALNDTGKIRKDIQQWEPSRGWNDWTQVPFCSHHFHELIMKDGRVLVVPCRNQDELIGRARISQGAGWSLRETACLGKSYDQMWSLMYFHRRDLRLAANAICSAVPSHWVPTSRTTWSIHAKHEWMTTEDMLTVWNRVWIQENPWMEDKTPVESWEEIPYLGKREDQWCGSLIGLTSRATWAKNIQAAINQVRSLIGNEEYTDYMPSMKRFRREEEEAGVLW
Chain of Cytochrome P450 2C9 (P11712 whole entry): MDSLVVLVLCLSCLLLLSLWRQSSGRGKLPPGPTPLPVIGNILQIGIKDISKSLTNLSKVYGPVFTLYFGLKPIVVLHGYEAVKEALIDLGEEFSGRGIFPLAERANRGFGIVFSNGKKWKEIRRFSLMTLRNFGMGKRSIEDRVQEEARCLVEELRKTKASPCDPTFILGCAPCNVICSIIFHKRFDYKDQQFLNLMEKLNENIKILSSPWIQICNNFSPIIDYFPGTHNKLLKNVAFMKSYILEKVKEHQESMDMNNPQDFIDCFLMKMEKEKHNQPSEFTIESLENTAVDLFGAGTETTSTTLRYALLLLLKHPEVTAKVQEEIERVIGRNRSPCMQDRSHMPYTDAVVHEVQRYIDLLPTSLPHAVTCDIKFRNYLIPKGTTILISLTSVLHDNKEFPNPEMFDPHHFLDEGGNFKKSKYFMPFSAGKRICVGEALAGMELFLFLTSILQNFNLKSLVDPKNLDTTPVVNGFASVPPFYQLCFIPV
Chain of DNA dC->dU-editing enzyme APOBEC-3G (Q9HC16 whole entry): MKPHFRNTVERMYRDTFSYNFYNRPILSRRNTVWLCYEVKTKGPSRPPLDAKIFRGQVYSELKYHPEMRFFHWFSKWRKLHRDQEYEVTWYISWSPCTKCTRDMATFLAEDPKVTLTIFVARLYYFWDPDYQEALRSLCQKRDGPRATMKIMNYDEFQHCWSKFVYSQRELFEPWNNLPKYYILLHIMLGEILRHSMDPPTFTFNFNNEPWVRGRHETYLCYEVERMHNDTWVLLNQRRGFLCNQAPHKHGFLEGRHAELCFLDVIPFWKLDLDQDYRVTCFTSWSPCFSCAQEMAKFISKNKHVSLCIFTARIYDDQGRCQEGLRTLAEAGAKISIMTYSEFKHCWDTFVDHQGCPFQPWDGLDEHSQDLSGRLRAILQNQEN

**Q.** For `C#CCOc1c(Br)cc(/C=C2/C(=O)ON=C2C)cc1OC`, which IC50 (Genome polyprotein) is on record?
**A.** > 100 µM (active)

**Q.** For `O=C1NN(c2ccccc2)C(=O)/C1=C\c1cccc(OC(=O)c2cccs2)c1`, which IC50 (Genome polyprotein) is on record?
**A.** 21.2 µM (active)

**Q.** Which EC50 [1] does the source give for `CCc1cccc(CC)c1NC(=O)COC(=O)/C(C#N)=C/c1ccc(OC)cc1` here?
**A.** > 99 µM (inactive)

**Q.** And the EC50 [2]?
**A.** > 99 µM (inactive)

**Q.** With `CCOc1ccc(C(S)=NC2CCCCC2)cc1OC` as the molecule, how does the IC50 [3] read?
**A.** 64.7 µM (active)

**Q.** Which IC50 (Genome polyprotein) does the source give for `Cc1ccc(/C=C2/C(=O)NC(=O)N(CC3CCCO3)C2=O)s1` (stereo not given) here?
**A.** > 100 µM (active)

**Q.** For `COc1cccc(NC(=S)NC(Cc2ccccc2)c2ccccc2)c1` (stereo not given), which IC50 [4] is on record?
**A.** 2.73 µM (active)

**Q.** What about the EC50 [5] of the same molecule?
**A.** > 53 µM (inactive)

**Q.** What about the IC50 [6] of the same molecule?
**A.** 3.35 µM (active)

**Q.** What does the source list for `C=CCn1c(SCc2c(C)noc2C)nc2sc(C)c(C)c2c1=O`?
**A.** IC50 [4]: > 20 µM (inactive); EC50 [5]: > 53 µM (inactive); IC50 [6]: < 0.368 µM (active)

**Q.** What does the source list for `Cc1ccc(Nc2nc(N)nc(-c3oc4ccccc4c3C)n2)cc1`?
**A.** EC50 (BJ [7]): 0.228 µM (active); EC50 (BJ [8]): < 0.12 µM (active)

**Q.** Which IC50 [9] does the source give for `CC1(c2nnc(-c3cccc(Cl)c3)o2)CC(c2cccc(Cl)c2)=NO1` (stereo not given) here?
**A.** > 80 µM (inactive)

**Q.** Which IC50 [9] does the source give for `Cn1c(=O)n(C)c2cc(NC(=O)CSc3nnc(-c4ccccc4O)n3-c3ccccc3)ccc21` here?
**A.** > 80 µM (inactive)

**Q.** Which AC50 (Cytochrome P450 2C9) does the source give for `Brc1ccc2cccnc2c1` here?
**A.** inconclusive

**Q.** And the AC50 (Cytochrome P450 2C19)?
**A.** 0.316 µM (inconclusive)

**Q.** Which IC50 (Genome polyprotein) does the source give for `O=C(O)c1ccc2c(c1)C(=O)N(c1ccc(/C=C/C(=O)c3ccccc3)cc1)C2=O` here?
**A.** 56.7 µM (active)

**Q.** Which IC50 [9] does the source give for `Cc1c(CCO)c(O)oc2nnc(-c3ccccc3)c1-2` here?
**A.** > 80 µM (inactive)
